In patent US20260226068A1, “IMIDAZOTRIAZINE IL-17A MODULATORS AND USES THEREOF” (DICE ALPHA, INC., priority 2023, published 2026) one finds IC50 and bioavailability data, which are given here for 24 compounds.

Data set [1] concerns the target T1, IL-17A/A (Homo sapiens, UniProt Q16552).
T1 construct: purchased Genscript Z03228
T1 sequence (Q16552 24-155): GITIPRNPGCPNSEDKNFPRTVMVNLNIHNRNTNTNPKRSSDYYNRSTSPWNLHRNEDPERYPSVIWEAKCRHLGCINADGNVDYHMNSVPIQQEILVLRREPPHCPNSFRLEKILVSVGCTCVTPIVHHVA
In words: IL-17A/A HEK-Blue cell assay (SEAP reporter). The format is cell-based. The conditions noted are these: HEK-Blue IL-17A reporter cells, IL17A/A 5 ng/mL, 20 hours, SEAP read at A630; read-out: HEK-Blue IL17AA (IC50 for IL-17A/A inhibition).

Data set [2] addresses T2, IL-17A/F (Homo sapiens, UniProt Q16552+Q96PD4).
T2 construct: purchased R&D Systems
T2 sequence (Q16552 24-155): T1 sequence (Q16552 24-155)
T2 sequence (Q96PD4 31-163): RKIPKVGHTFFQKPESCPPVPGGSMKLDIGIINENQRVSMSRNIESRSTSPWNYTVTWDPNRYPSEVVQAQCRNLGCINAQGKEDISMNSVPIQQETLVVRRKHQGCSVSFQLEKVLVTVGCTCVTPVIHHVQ
Put plainly: IL-17A/F HEK-Blue cell assay (SEAP reporter). The format is cell-based. The following applies: HEK-Blue IL-17A reporter cells, IL17A/F 5 ng/mL, 20 hours, SEAP read at A630; read-out: HEK-Blue IL17AF (IC50 for IL-17A/F inhibition).

The nature of data set [3]: Mouse oral bioavailability. The format is in vivo. The following applies: C57BL/6J mice, PO 10 mg/kg vs IV 1 mg/kg, plasma AUC, read-out: % F (Mouse), oral bioavailability. The protocol:
The test compound is administered to C57BL/6J mice intravenously (IV) at 1 mg/kg or orally (PO) at 10 mg/kg using vehicles composed of 10% DMA, 70% Polyethylene glycol 400, and 20% purified water; or 10% DMA, 50% Polyethylene glycol 400, and 40% purified water. Serial blood collections occur at 0.08, 0.25, 0.5, 1, 2, 4, 8 and 24 h post IV bolus dose administration, and 0.25, 0.5, 1, 2, 4, 8 and 24 h post oral dose administration. Blood samples are treated with EDTA anticoagulant. Plasma is isolated by centrifugation and stored at −70° C. until analysis by LC-MS/MS. Test article concentration is determined in plasma and uploaded into the Phoenix WinNonlin system where noncompartmental analysis is used to calculate Area Under the Curve (AUC) for both IV and PO arms. Bioavailability (% F) is calculated via the following equation,
% F=(AUCPO×DoseIV)/(AUCIV×DosePO)×100

SMILES strings stand for the structures. pIC50: −log10 of the molar value.

As for `CCn1nccc1C(=O)N[C@H](c1cn2nc(C[C@H]3C[C@@H](C(F)(F)F)CNC3=O)c(C3CCCOC3)nc2n1)[C@@H]1CCCC(F)(F)C1` (single isomer, unassigned) [Compound 69], the pIC50 in data set [1] was more than 7.00; in data set [2], 6.00 to 7.00. In data set [3], the bioavailability – broadly, the share of a dose that reaches the circulation, judged against a reference dose that is usually intravenous – is 40%.

For the compound `CCn1nccc1C(=O)N[C@H](c1cn2nc(C[C@H]3C[C@@H](C(F)(F)F)CNC3=O)c(C3CCCOC3)nc2n1)[C@H]1CCCC(F)(F)C1` (single isomer, unassigned) [Compound 70], the pIC50 in data set [1] and in data set [2] was more than 7.00 throughout. The bioavailability in data set [3] amounted to 45%.

As for `CCn1nccc1C(=O)N[C@H](c1cn2nc(CC3C[C@@H](C(F)(F)F)CNC3=O)c(N3CCO[C@H](C)C3)nc2n1)[C@@H]1CCCC(F)(F)C1` (single isomer, unassigned) [Compound 122], the pIC50 in data set [1] and in data set [2] was more than 7.00 in each case. The bioavailability in data set [3] stood at 51%.

For `CCn1nccc1C(=O)N[C@H](c1cn2nc(C[C@H]3C[C@@H](C(F)(F)F)CNC3=O)c(C3CCOC3)nc2n1)[C@H]1CCCC(F)(F)C1` (single isomer, unassigned) [Compound 204], the pIC50 in data set [1] was more than 7.00; in data set [2], 6.00 to 7.00. In addition, the bioavailability in data set [3] worked out at 27%.

With `O=C(N[C@H](c1cn2nc(CC3C[C@@H](C(F)(F)F)CNC3=O)c(N3CCOCC3)nc2n1)C1CCC(F)(F)CC1)c1nonc1C1CC1` (stereo partly drawn) [Compound 56], the pIC50 in data set [1] is more than 7.00; in data set [2], less than 6.00. In addition, the bioavailability in data set [3] was found to be 87%.

For `CCn1nccc1C(=O)N[C@H](c1cn2nc(C[C@H]3C[C@@H](C(F)(F)F)CNC3=O)c(C3CCOCC3)nc2n1)C1CCC(F)(F)CC1` [Compound 88, N-((1S)-(4,4-difluorocyclohexyl)(2-(((3R,5R)-2-oxo-5-(trifluoromethyl)piperidin-3-yl)methyl)-3-(tetrahydro-2H-pyran-4-yl)imidazo[1,2-b][1,2,4]triazin-6-yl)methyl)-1-ethyl-1H-pyrazole-5-carboxamide], the results for the pIC50 in data set [1] and in data set [2] were more than 7.00 and 6.00 to 7.00, respectively. Besides, the bioavailability in data set [3] came out at 69%.

As for `Cc1nonc1C(=O)N[C@H](c1cn2nc(C[C@H]3C[C@@H](C(F)(F)F)CNC3=O)c(C3CCOCC3)nc2n1)C1CCC(F)(F)CC1` [Compound 148, N-((1S)-(4,4-difluorocyclohexyl)(2-(((3R,5R)-2-oxo-5-(trifluoromethyl)piperidin-3-yl)methyl)-3-(tetrahydro-2H-pyran-4-yl)imidazo[1,2-b][1,2,4]triazin-6-yl)methyl)-4-methyl-1,2,5-oxadiazole-3-carboxamide], the pIC50 was more than 7.00 in data set [1] and less than 6.00 in data set [2]. Also, the bioavailability in data set [3] worked out at 91%.

`CCn1nccc1C(=O)N[C@H](c1cn2nc(C[C@H]3C[C@@H](C(F)(F)F)CNC3=O)c(C3CC4CCC(C3)O4)nc2n1)C1CCC(F)(F)CC1` (stereo partly drawn) [Compound 153, N-((1S)-(3-(8-oxabicyclo[3.2.1]octan-3-yl)-2-(((3R,5R)-2-oxo-5-(trifluoromethyl)piperidin-3-yl)methyl)imidazo[1,2-b][1,2,4]triazin-6-yl)(4,4-difluorocyclohexyl)methyl)-1-ethyl-1H-pyrazole-5-carboxamide]: the pIC50 is more than 7.00 in data set [1] and 6.00 to 7.00 in data set [2]. Also, the bioavailability in data set [3] was determined as 43%.

Take `CC(C)n1ncnc1C(=O)N[C@H](c1cn2nc(C[C@H]3C[C@@H](C(F)(F)F)CNC3=O)c(C3CCOCC3)nc2n1)C1CCC(F)(F)CC1` [Compound 229]: the results for the pIC50 in data set [1] and in data set [2] were more than 7.00 and less than 6.00, respectively. The bioavailability in data set [3] was 83%.

`CCc1nonc1C(=O)N[C@H](c1cn2nc(C[C@H]3C[C@@H](C(F)(F)F)CNC3=O)c(N3CCN(CCOC)CC3)nc2n1)C1CCC(F)(F)CC1` [Compound 421, N—((S)-(4,4-difluorocyclohexyl)(3-(4-(2-methoxyethyl)piperazin-1-yl)-2-(((3R,5R)-2-oxo-5-(trifluoromethyl)piperidin-3-yl)methyl)imidazo[1,2-b][1,2,4]triazin-6-yl)methyl)-4-ethyl-1,2,5-oxadiazole-3-carboxamide]: the pIC50 in data set [1] is more than 7.00; in data set [2], less than 6.00.

As to `CCn1ncnc1C(=O)N[C@H](c1cn2nc(C[C@H]3C[C@@H](C(F)(F)F)CNC3=O)c(C3CCOCC3)nc2n1)[C@H]1CCCC(F)(F)C1` [Compound 422, N—((S)—((S)-3,3-difluorocyclohexyl)(2-(((3R,5R)-2-oxo-5-(trifluoromethyl)piperidin-3-yl)methyl)-3-(tetrahydro-2H-pyran-4-yl)imidazo[1,2-b][1,2,4]triazin-6-yl)methyl)-1-ethyl-1H-1,2,4-triazole-5-carboxamide], the pIC50 in data set [1] was more than 7.00; in data set [2], 6.00 to 7.00.

Turning to `CCn1nccc1C(=O)N[C@H](c1cn2nc(C[C@H]3CC4(CC4)CNC3=O)c(C3CCOCC3)nc2n1)C1CCC(F)(F)CC1` [Compound 423], the pIC50 in data set [1] is more than 7.00; in data set [2], less than 6.00.

For the compound `CCn1nccc1C(=O)N[C@H](c1cn2nc(C[C@@H]3CC4(CC4)CNC3=O)c(C3CCOCC3)nc2n1)C1CCC(F)(F)CC1` [Compound 424], the pIC50 in data set [1] is more than 7.00; in data set [2], 6.00 to 7.00.

On to `CCn1nccc1C(=O)N[C@H](c1cn2nc(C[C@@H]3C(=O)NC4CC3C4)c(C3CCOCC3)nc2n1)C1CCC(F)(F)CC1` [Compound 425], for which the pIC50 in data set [1] was 6.00 to 7.00; in data set [2] it was less than 6.00.

As for `CCn1nccc1C(=O)N[C@H](c1cn2nc(C[C@H]3C(=O)NC4CC3C4)c(C3CCOCC3)nc2n1)C1CCC(F)(F)CC1` [Compound 426], the pIC50 in data set [1] is more than 7.00; in data set [2], less than 6.00.

With `CCn1nccc1C(=O)N[C@H](c1cn2nc(C[C@@H]3C(=O)NC[C@@H]4C[C@@H]43)c(C3CCOCC3)nc2n1)C1CCC(F)(F)CC1` [Compound 427], the pIC50 was 6.00 to 7.00 in data set [1] and less than 6.00 in data set [2].

As to `CCn1nccc1C(=O)N[C@H](c1cn2nc(C[C@@H]3C(=O)NC[C@H]4C[C@H]43)c(C3CCOCC3)nc2n1)C1CCC(F)(F)CC1` [Compound 428], the pIC50 was more than 7.00 in data set [1] and less than 6.00 in data set [2].

On to `CCn1nccc1C(=O)N[C@H](c1cn2nc(C[C@H]3C(=O)NC[C@H]4C[C@H]43)c(C3CCOCC3)nc2n1)C1CCC(F)(F)CC1` [Compound 429], for which the pIC50 was 6.00 to 7.00 in data set [1] and less than 6.00 in data set [2].

In the case of `O=C(N[C@H](c1cn2nc(C[C@H]3C[C@@H](C(F)(F)F)CNC3=O)c(C3CCOCC3)nc2n1)C1CCC(F)(F)CC1)c1ccnn1CCN1CCCC1C(F)(F)F` (stereo partly drawn) [Compound 430, N—((S)-(4,4-difluorocyclohexyl)(2-(((3R,5R)-2-oxo-5-(trifluoromethyl)piperidin-3-yl)methyl)-3-(tetrahydro-2H-pyran-4-yl)imidazo[1,2-b][1,2,4]triazin-6-yl)methyl)-1-(2-(2-(trifluoromethyl)pyrrolidin-1-yl)ethyl)-1H-pyrazole-5-carboxamide], the pIC50 in data set [1] is more than 7.00; in data set [2], 6.00 to 7.00.

Regarding `CCn1nccc1C(=O)N[C@H](c1cn2nc(C[C@H]3C[C@@H](C(F)(F)F)CNC3=O)c(N3CCN(C4COC4)CC3)nc2n1)C1CCC(F)(F)CC1` [Compound 433, N—((S)-(4,4-difluorocyclohexyl)(3-(4-(oxetan-3-yl)piperazin-1-yl)-2-(((3R,5R)-2-oxo-5-(trifluoromethyl)piperidin-3-yl)methyl)imidazo[1,2-b][1,2,4]triazin-6-yl)methyl)-1-ethyl-1H-pyrazole-5-carboxamide], the values for the pIC50 in data set [1] and in data set [2] were more than 7.00 and 6.00 to 7.00, respectively.

As for `CCn1nccc1C(=O)N[C@H](c1cn2nc(CN3C[C@@H](C(F)(F)F)NC3=O)c(C3CCOCC3)nc2n1)C1CCC(F)(F)CC1` [Compound 434], the pIC50 in data set [1] is 6.00 to 7.00; in data set [2] it was less than 6.00.

On to `CCn1nccc1C(=O)N[C@H](c1cn2nc(CN3CC(F)(F)CNC3=O)c(C3CCOCC3)nc2n1)C1CCC(F)(F)CC1` [Compound 435], for which the results for the pIC50 in data set [1] and in data set [2] were 6.00 to 7.00 and less than 6.00, respectively.

For `CCn1nccc1C(=O)N[C@H](c1cn2nc(CN3C[C@@H](C(F)(F)F)CNC3=O)c(C3CCOCC3)nc2n1)C1CCC(F)(F)CC1` [Compound 436], the pIC50 in data set [1] is 6.00 to 7.00; in data set [2], less than 6.00.

For the compound `CCn1nccc1C(=O)N[C@H](c1cn2nc(CN3C[C@H](C(F)(F)F)CNC3=O)c(C3CCOCC3)nc2n1)C1CCC(F)(F)CC1` [Compound 437], the pIC50 in data set [1] was 6.00 to 7.00; in data set [2], less than 6.00.
